Measured values from the CheMixHub ionic liquid set.
Several values for one entry are separate records, joined by “and”; a condition that tells them apart may be missing. Equal values may be shown once. ± gives the uncertainty stated by the source.

Experiment: xn = mol fraction of the nth substance listed

CCCC[P+](CCCC)(CCCC)CCCC.[Br-] + OCC(O)CO + O
viscosity [mPa·s], 101.3 kPa
Details	x1 = 0.03663, x2 = 0.07337	x1 = 0.06194, x2 = 0.1241	x1 = 0.09824, x2 = 0.1968	x1 = 0.1305, x2 = 0.2615	x1 = 0.1725, x2 = 0.3455	x1 = 0.1845, x2 = 0.3695	x1 = 0.2344, x2 = 0.4696	x1 = 0.2594, x2 = 0.5196	x1 = 0.3007, x2 = 0.6023	x1 = 0.333, x2 = 0.667
293.15 K	9.46 ± 0.98	24.1 ± 2.5	60.1 ± 6.1	99 ± 10	156 ± 16	170 ± 17	249 ± 25	300 ± 31	393 ± 41	468 ± 49
298.15 K	7.51 ± 0.77	18.5 ± 1.9	45.8 ± 4.6	72.1 ± 7.3	109 ± 11	120 ± 12	176 ± 18	212 ± 22	276 ± 28	329 ± 34
303.15 K	6.25 ± 0.64	15 ± 1.5	35.7 ± 3.6	55 ± 5.5	79.9 ± 8	90.9 ± 9.2	130 ± 13	154 ± 16	198 ± 20	235 ± 24
308.15 K	5.21 ± 0.53	12 ± 1.2	28.3 ± 2.9	42.6 ± 4.3	62.8 ± 6.3	67.8 ± 6.8	96.5 ± 9.7	118 ± 12	145 ± 15	172 ± 17
313.15 K	4.15 ± 0.43	9.9 ± 1	22.1 ± 2.2	32.4 ± 3.3	47 ± 4.7	49.3 ± 5	66.5 ± 6.7	88.4 ± 8.9	99 ± 10	116 ± 12
318.15 K	3.74 ± 0.38	8.49 ± 0.86	18 ± 1.8	26.4 ± 2.7	38.4 ± 3.9	41.4 ± 4.2	57.6 ± 5.8	67.5 ± 6.8	83.2 ± 8.4	97.1 ± 9.8
323.15 K	3.26 ± 0.33	7.02 ± 0.71	14.5 ± 1.5	21 ± 2.1	29 ± 2.9	31.2 ± 3.1	42.5 ± 4.3	50.4 ± 5.1	57.9 ± 5.8	68.4 ± 6.9

CCCC[P+](CC)(CCCC)CCCC.[Br-] + OCCO
101 kPa, x1 = 0.333
Details	viscosity [mPa·s]
303.15 K	43.82 ± 0.45
313.15 K	29.04 ± 0.3
323.15 K	20.08 ± 0.21
333.15 K	14.44 ± 0.15
343.15 K	10.69 ± 0.11
353.15 K	8.22 ± 0.08

CCCC[P+](CCCC)(CCCC)CCCC.[Br-] + OCCO
101.3 kPa, x1 = 0.333
Details	viscosity [mPa·s]
293.15 K	122 ± 12
323.15 K	29.9 ± 3

CC[n+]1ccn(C)c1.O=S(=O)([O-])C(F)(F)F + OCCO
100 kPa
Details	electrical conductivity	viscosity [mPa·s]
293.15 K, x1 = 0.001	–	20.7 ± 0.4
293.15 K, x1 = 0.007	–	20.4 ± 0.4
293.15 K, x2 = 0.974	–	19.6 ± 0.4
298.15 K, x1 = 0.001	0.0058 S/m and 0.0109 S/m	16.9 ± 0.4
298.15 K, x2 = 0.798	–	16.62 ± 0.62
303.15 K, x1 = 0.013	–	13.4 ± 0.3
303.15 K, x2 = 0.0943	–	30.94 ± 0.7
303.15 K, x2 = 0.2	–	23.4 ± 0.5
308.15 K, x2 = 0.6019	–	13.71 ± 0.62
308.15 K, x2 = 0.8964	–	11.78 ± 0.61
313.15 K, x1 = 0.001	0.01 S/m and 0.0188 S/m	9.53 ± 0.2
313.15 K, x2 = 0.408	–	13.87 ± 0.62
313.15 K, x2 = 0.497	–	10.6 ± 0.2
313.15 K, x2 = 0.808	1.51 ± 0.06 S/m	8 ± 0.17
318.15 K, x2 = 0.0943	–	19.42 ± 0.64
323.15 K, x2 = 0.0943	–	16.91 ± 0.63
323.15 K, x2 = 0.2021	–	13.96 ± 0.62
323.15 K, x2 = 0.408	–	11.12 ± 0.61
